From publication PMC8151276, “An Integrated Approach toward NanoBRET Tracers for Analysis of GPCR Ligand Engagement” (Molecules, 2021)

Biological target: T1, TSHR (Homo sapiens, UniProt P16473)
T1 construct: purchased Promega (in-house HiBiT-GPCR construct library, NanoBRET)
Experiment: NanoBRET screen HiBiT-TSHR in HEK293
Format: binding
Method: Each tracer candidate was screened across the entire library of HiBiT-GPCR constructs using NanoBRET as the detection modality. As depicted in Figure 4A, the specificity of interactions was evaluated through decrease in BRET due to competitive displacement of a bound tracer by excess parental compound. Each tracer was analyzed for binding to each HiBiT-GPCR fusion in the absence and in the presence of competing parental compound. Briefly, HEK293 cells were transfected with HiBiT-GPCR constructs diluted into promoterless DNA to reduce expression and maximize translocation to the cell surface. Each tracer candidate was then screened at concentrations of 1 μM and 0.1 μM across cells expressing these fusions. Cells were treated for 1.5 h with tracer either alone or in the presence of 20 μM competing parental compound (i.e., control). BRET was measured upon addition of purified LgBiT and subsequent complementation with HiBiT genetically fused to a GPCR. The specificity of interactions was assessed through a decrease in BRET signal due to competitive displacement of the bound tracer. To further gauge the robustness of these interactions, the fold response over the control (i.e., BRETtracer/BRETcontrol) was calculated. We chose a 1.5-fold response, which translates to ≥7-fold signal over noise as the minimal threshold required to score an interaction as positive.
HiBiT-GPCR DNA constructs were diluted in 10 mM Tris pH 8 to a final concentration of 0.01 μg/μL, arrayed in 96-well plates and stored at −20 °C. For transfection, HEK293 cells were suspended in Opti-MEM (without phenol red) supplemented with 2% fetal bovine serum (Seradigm) and 100 units/mL penicillin–streptomycin (Gibco) at a final concentration of 220,000 cells/mL and dispensed into white 96-well plates at 90 μL/well. Subsequent transfections and screens were carried using an Agilent Bravo Automated Liquid Handling Platform. First, the 96-well HiBiT DNA arrays were diluted 25-fold in Opti-MEM (without serum or phenol red) to a final concentration of 0.0004 μg/μL and 20 μL of the diluted DNAs were transferred into new 96-well plates. Next, promoterless carrier DNA (1 μg/μL) was diluted 25-fold (0.04 μg/μL) and then dispensed into the diluted arrays at 20 μL/well. Following brief mixing, Viafect transfection reagent (Promega) diluted 16-fold into Opti-MEM was dispensed into the plates at 40 μL/well. After mixing by pipetting, plates were incubated for 10 min on the pipetting station deck. The DNA-transfection reagent complexes were then added to plates containing cells. To facilitate the screen, 10 μL of DNA-transfection reagent complexes were added in duplicates to the top 4 and bottom 4 rows, resulting in two identical 48-well arrays per plate. Plates with transfected cells were incubated for 18–20 h at 37 °C/5% CO2. A screen of each tracer across the entire library using two different concentrations requires duplicate plates of transfected cells. Depending on the number of tracers being screened, transfections can be scaled up using the same ratios. The next day, for each tracer, four 20× screening solutions in tracer dilution buffer (Promega) were prepared: two duplicates at final concentration of 20 μM and two duplicates at a final concentration of 2 μM. […] The four resulting solutions were diluted 4-fold in Opti-MEM without serum or phenol red to generate 5× solutions (5 µM and 0.5 µM tracer +/− 100 μM competing compound). To screen the library, a BioTek MultiFlo FX liquid dispenser was used to dispense 22.5 µL of tracer solution to the top 4 rows and 22.5 µL tracer + competing compound solution to the 4 bottom rows. Plates were briefly mixed on an orbital shaker and incubated for 1.5 h at room temperature. […] Plates were briefly mixed on an orbital shaker and incubated for 15 min to allow complementation.

T1 sequence (P16473 21-764): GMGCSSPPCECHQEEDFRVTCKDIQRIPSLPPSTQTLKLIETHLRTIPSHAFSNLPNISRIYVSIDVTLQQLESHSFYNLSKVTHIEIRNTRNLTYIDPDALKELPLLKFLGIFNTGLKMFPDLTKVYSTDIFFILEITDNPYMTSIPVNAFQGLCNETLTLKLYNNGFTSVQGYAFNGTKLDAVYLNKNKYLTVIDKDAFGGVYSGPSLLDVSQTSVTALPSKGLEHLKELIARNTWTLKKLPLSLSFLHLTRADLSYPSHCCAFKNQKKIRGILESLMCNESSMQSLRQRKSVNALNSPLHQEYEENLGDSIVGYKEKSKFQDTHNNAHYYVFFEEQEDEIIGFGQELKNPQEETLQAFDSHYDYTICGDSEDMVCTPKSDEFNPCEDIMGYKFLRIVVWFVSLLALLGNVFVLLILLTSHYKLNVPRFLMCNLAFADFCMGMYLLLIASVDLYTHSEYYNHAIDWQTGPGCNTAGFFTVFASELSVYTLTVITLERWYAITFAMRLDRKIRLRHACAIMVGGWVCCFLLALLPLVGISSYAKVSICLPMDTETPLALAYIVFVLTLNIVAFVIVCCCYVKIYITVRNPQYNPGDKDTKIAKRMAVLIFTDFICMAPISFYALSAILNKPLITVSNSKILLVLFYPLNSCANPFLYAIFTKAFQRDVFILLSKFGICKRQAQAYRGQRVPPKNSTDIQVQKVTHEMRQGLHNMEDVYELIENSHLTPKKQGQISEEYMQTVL

SMILES | NanoBRET Fold Response (TSHR, tracer 0.1μM) | NanoBRET Fold Response (TSHR, tracer 1μM) | further results
CCOC(=O)c1cc(C#N)c(N2CCC(C(=O)NS(=O)(=O)Cc3ccccc3/C=C/C(=O)NCCNC(=O)CCc3ccc4n3[B-](F)(F)[N+]3=C(c5ccc[nH]5)C=CC3=C4)CC2)nc1C [AZD1283-1-NB590] | – | – | NanoBRET Fold Response (TSHR, 0.1μM): 1.00; NanoBRET Fold Response (TSHR, 1μM): 0.96
N#CN=C(NCCCOc1cccc(CN2CCCCC2)c1)NCCNC(=O)CCOCCOCCOCCOCCNC(=O)CCc1ccc2n1[B-](F)(F)[N+]1=C(c3ccc[nH]3)C=CC1=C2 [Aminopotentidine-2-NB590] | 1.07 | 1.01 | –
COc1ccc2c(n1)c(CCNC(C)=O)cn2CCNC(=O)CCc1ccc2n1[B-](F)(F)[N+]1=C(c3ccc[nH]3)C=CC1=C2 [Azamelatonin-1-NB590] | – | – | NanoBRET Fold Response (0.1μM tracer): 1.25; NanoBRET Fold Response (1μM tracer): 0.91
COc1ccc2[nH]c(-c3ccc(CNC(=O)CCOCCOCCOCCOCCNC(=O)CCc4ccc5n4[B-](F)(F)[N+]4=C(c6ccc[nH]6)C=CC4=C5)cc3)c(CCNC(C)=O)c2n1 [AzomelatoninICO9-2-NB590] | – | – | NanoBRET Fold Response (0.1μM tracer): 1.03; NanoBRET Fold Response (1μM tracer): 0.95
O=C(CCOCCOCCOCCOCCNC(=O)CCc1ccc2n1[B-](F)(F)[N+]1=C(c3ccc[nH]3)C=CC1=C2)NCCCN1CCN(C2=Nc3cc(Cl)ccc3Nc3ccccc32)CC1 [Clozapine-a-2-NB590] | – | – | NanoBRET Fold Response (TSHR, 0.1μM tracer): 0.92; NanoBRET Fold Response (TSHR, 1μM tracer): 1.05
CN1CCN(C2=Nc3cc(Cl)ccc3Nc3ccc(CNC(=O)CCOCCOCCOCCOCCNC(=O)CCc4ccc5n4[B-](F)(F)[N+]4=C(c6ccc[nH]6)C=CC4=C5)cc32)CC1 [Clozapine-b-2-NB590] | – | – | NanoBRET Fold Response (TSHR, 0.1μM tracer): 1.04; NanoBRET Fold Response (TSHR, 1μM tracer): 0.99
CN1CCN(C2=Nc3cc(Cl)ccc3N(CC(=O)NCCOCCOCCOCCOCCNC(=O)CCc3ccc4n3[B-](F)(F)[N+]3=C(c5ccc[nH]5)C=CC3=C4)c3ccccc32)CC1 [Clozapine-c-2-NB590] | – | – | NanoBRET Fold Response (TSHR, 0.1μM tracer): 0.99; NanoBRET Fold Response (TSHR, 1μM tracer): 1.04
O=C(CCOCCOCCOCCOCCNC(=O)CCc1ccc2n1[B-](F)(F)[N+]1=C(c3ccc[nH]3)C=CC1=C2)NCCCN1CCN(C2=Nc3ccccc3Oc3ccc(Cl)cc32)CC1 [Loxapine-a-2-NB590] | 0.97 | 1.07 | –
COc1ccccc1N1CCN(CCCCN2C(=O)c3ccc(CNC(=O)CCOCCOCCOCCOCCNC(=O)CCc4ccc5n4[B-](F)(F)[N+]4=C(c6ccc[nH]6)C=CC4=C5)cc3C2=O)CC1 [NAN-190-2-NB590] | 0.96 | 1.06 | –
COc1ccccc1N1CCN(CCCCN2C(=O)c3ccc(CNC(=O)CCOCCNC(=O)c4ccc(CNC(=O)CCc5ccc6n5[B-](F)(F)[N+]5=C(c7ccc[nH]7)C=CC5=C6)cc4)cc3C2=O)CC1 [NAN-190-3-NB590] | 1.01 | 1.04 | –
O=C(CCc1ccc2n1[B-](F)(F)[N+]1=C(c3ccc[nH]3)C=CC1=C2)NCc1ccc(C(=O)NCCOCCC(=O)N[C@@H]2CC[C@@]3(O)[C@H]4Cc5ccc(O)c6c5[C@@]3(CCN4CC3CC3)[C@H]2O6)cc1 [Naltrexone-3-NB590] | 1.36 | 1.06 | –
O=C(CCc1ccc2n1[B-](F)(F)[N+]1=C(c3ccc[nH]3)C=CC1=C2)NCCOCCOCCNC(=O)OCCOCCN1CCN(C2=Nc3ccccc3Sc3ccccc32)CC1 [Quetiapine-a-2-NB590] | 0.96 | 0.92 | –
Cc1nc2n(c(=O)c1CCN1CCC(c3noc4cc(F)ccc34)CC1)CCCC2OC(=O)NCCOCCOCCOCCOCCNC(=O)CCc1ccc2n1[B-](F)(F)[N+]1=C(c3ccc[nH]3)C=CC1=C2 (centres unmarked) [Risperidone-2-NB590] | 1.00 | 0.96 | –
CC(C)N(CC[C@H](c1ccccc1)c1cc(CCNC(=O)CCOCCOCCOCCOCCNC(=O)CCc2ccc3n2[B-](F)(F)[N+]2=C(c4ccc[nH]4)C=CC2=C3)ccc1O)C(C)C [Tolterodine-2-NB590] | 0.69 | 1.20 | –
CC(C)N(CC[C@H](c1ccccc1)c1cc(CCNC(=O)c2ccc(CNC(=O)CCc3ccc4n3[B-](F)(F)[N+]3=C(c5ccc[nH]5)C=CC3=C4)cc2)ccc1O)C(C)C [Tolterodine-BZ-NB590] | 0.96 | 1.08 | –
CCCn1c(=O)c2[nH]c(-c3ccc(OCC(=O)NCCNC(=O)CCOCCNC(=O)c4ccc(CNC(=O)CCc5ccc6n5[B-](F)(F)[N+]5=C(c7ccc[nH]7)C=CC5=C6)cc4)cc3)nc2n(CCC)c1=O [XAC-3-NB590] | 1.08 | 1.03 | –
